The source of these data is US7977375B2, “Antibiotic and method of production thereof” (Helmholtz-Zentrum Für Infektionsforschung GmbH, priority 2004, dated 2011).

In brackets after ≈: the same amount, converted by molar mass.

Test [1] has as its system Burkholderia cepacia SCV. The experiment in a line: electron microscopy of cell division (FIG. 4). The format is cell-based. To be noted: 128 μg/ml, 4 hours shake culture. Here is the method:
FIG. 4 a) to c) are electron microscope photographs of Burkholderia cepacia SCV after 4 hours growth without antibiotic and d), e) and f) in the presence of 128 μg/ml 7-O-malonyl macrolactin A;
(§1) It is thought that 7-O-malonyl macrolactin A inhibits the division of bacterial cells, which interrupts the proliferation thereof.
The electron microscope photographs moreover elucidate the bacteriostatic effect of 7-O-malonyl macrolactin A against gram-negative bacteria, an example whereof is the cell division of Burkholderia cepacia. Thus, FIGS. 4a, b and c show Burkholderia cepacia SCV (clinical isolate) in a shake culture without the addition of antibiotic ingredients (control) and FIGS. 4d, e and f after 4 hours growth in a shake culture in the presence of 128 μg/ml 7-O-malonyl macrolactin A. In the control culture, white arrowheads point to the cell division planes and the transverse walls in connection therewith. In the case of the gram-negative cells treated with 7-O-malonyl macrolactin A, (FIGS. 4e and f) black arrows indicate the cell division planes and the unnatural protuberances.

Test [2] has as its system E. faecium VRAR E315. The experiment in a line: agar diffusion method, inhibition zone. It is filed as cell-based, Enterococcus faecium. To be noted: Enterococcus faecium, VRARE315; E. faecium VRAR E315; MH agar, 18 hours at 37° C.; per disk 10 μl crude extract, 50 μg macrolactin, 78 μg erythromycin, 30 μg vancomycin, 10 μg ampicillin. The method, then:
The agar diffusion method employing Mueller-Hinton (MH) agar (Difco Laboratories) was used to determine effectiveness against bacteria and yeasts. Sterile paper disks (Schleicher & Schüell, Germany) were seeded with 10 μl crude extract or with a solution of purified macrolactin (final compound concentration on the disk 50 μg) and then placed on the surface of MH-agar plates that had been seeded beforehand with a suspension of overnight culture of the test microorganisms at a concentration of 10^5 cells/ml.
Background: A growth-free zone around the sample is the usual read-out of agar diffusion tests.

Test [3] deals with MRSA 3. The experiment in a line: MIC / MBC in liquid culture. The format is cell-based, Staphylococcus aureus. The note with it: MRSA 3.
Test [4] has as its system E. faecalis ATCC 29212. Put plainly: MIC / MBC in liquid culture. It is filed as cell-based, Enterococcus faecalis.
Test [5] has as its system bacteria, especially gram-positive bacteria. Put plainly: bacteriostatic activity, general statement. The format is cell-based. The note with it: very low concentrations. The method, then: 7-O-malonyl macrolactin A is antibiotically active against bacteria, especially gram-positive bacteria and is, in particular, advantageously bacteriostatic at very low concentrations, for example, in the region of 0.05-4 μg/ml. […] The bacteriostatic activity of 7-O-malonyl macrolactin A has already been observed at weak concentrations, as compared to the prior art macrolactin A, even where there has been no direct or immediate bactericidal effect at such low concentrations.

Test [6] concerns Candida krusei DSMZ6128. The experiment in a line: kinetics of growth (FIG. 1E). It is filed as cell-based. The note with it: C. krusei; 128 μg/ml. The source says: (§2) • FIG. 1A y-axis: Log CFU (Colony Forming Units) Cells/ml • x-axis: Time (HRS) • FIG. 1B y-axis: Log CFU (Colony Forming Units) Cells/ml • x-axis: Time (HRS) • FIG. 1C: y-axis: Log CFU (Colony Forming Units) Cells/ml • x-axis: Time (HRS) • FIG. 1D: y-axis: Log CFU (Colony Forming Units) Cells/ml • x-axis: Time (HRS) • FIG. 1E: y-axis: Log CFU (Colony Forming Units) Cells/ml • x-axis: Time (HRS) • FIG. 1F: y-axis: Log CFU (Colony Forming Units) Cells/ml • x-axis: Time (HRS) • FIG. 5A: y-axis: % Inhibition • x-axis Concentration μg/ml • FIG. 5B: y-axis: % Inhibition • x-axis Concentration μg/ml

Test [7] concerns E. faecium VRAR E315. The experiment in a line: electron microscopy of cell division (FIG. 3). It is filed as cell-based, Enterococcus faecium. To be noted: 16 μg/ml, 4 hours. The method, then: FIG. 3 a) to c) are electron microscope photographs of E. faecium VRAR E315 after 4 hours growth without antibiotic and d), e) and f) in the presence of 16 μg/ml 7-O-malonyl macrolactin A;
as §1
The effect of 7-O-malonyl macrolactin A on cell division can also be observed from the electron microscope photographs of Enterococcus faecium (VRAR=vancomycin-resistant, ampicillin-resistant, E315, clinical isolate) shown in FIG. 3. The division planes of the untreated cells after 4 hours growth without antibiotic appear as light regions in FIGS. 3a), b) and c). […] In this example, however, no fully formed cell division planes are evident. The initiation of asymmetrical cell division is indicated by the small black arrowheads.

In test [8] the test system is Enterococcus faecium VRAR E315. The experiment in a line: kinetics of growth at sub-MIC concentrations (FIG. 1D). It is filed as cell-based. To be noted: E. faecium E315; 4 or 16 μg/ml; four hours following cultivation.
From the text: as §2

Test [9] relates to Enterococcus faecalis ATCC 29212. Put plainly: kinetics of growth at sub-MIC concentrations (FIG. 1C). It is filed as cell-based. The note with it: E. faecalis ATCC 29212; 4 or 16 μg/ml; four hours following cultivation.
From the text: as §2

In test [10] the test system is B. cepacia SCV 141. Put plainly: MIC / MBC in liquid culture. The format is cell-based, Burkholderia cepacia. To be noted: Burkholderia cepacia. The source says:
(§3) 7-O-malonyl macrolactin A was not effective against some of the gram-negative bacteria tested by the inventors.

Test [11] concerns B. cepacia WT139. The experiment in a line: MIC / MBC in liquid culture. It is filed as cell-based, Burkholderia cepacia.
From the text: as §3

Broadly, the zone of inhibition is the size of the clear area around the sample on an inoculated plate. A low value points to a weaker effect on the plate. As for `CC1CCC/C=C/C=C/C(O)CC(O)C/C=C\C=C\C(OC(=O)CC(=O)O)C/C=C/C=C\C(=O)O1` (stereo not drawn) [7-O-malonyl macrolactin A], the “effect on cell division, electron microscope” value in test [1] is recorded as “anomalously sized cells were also evident”; in test [7], “anomalous, asymmetrical cell division is being initiated”. In test [2], this compound displayed a zone of inhibition at 50 µg/disc of 15 mm. Moreover, the “MIC (minimal inhibitory concentration)” value in test [3] was over 128 µg/mL; in test [4] (E. faecalis ATCC 29212), 128 µg/mL (≈ 262 µM); in test [11] it was over 128 µg/mL. Also, the MBC in [3] (Staphylococcus aureus, pronounced inhibition of growth, read-out: MBC (minimal bacteriostatic or fungistatic concentration)) was determined as 4 µg/mL (≈ 8.19 µM); in [4] (Enterococcus faecalis, ATCC29212, E. faecalis ATCC 29212, read-out: MBC (minimal bacteriostatic or fungistatic concentration)), 4 µg/mL (≈ 8.19 µM); in test [10] (SCV141, read-out: MBC (minimal bacteriostatic or fungistatic concentration)), 32 µg/mL (≈ 65.5 µM). The MIC is over 128 µg/mL in test [3] (Staphylococcus aureus, read-out: MIC (minimal inhibitory concentration)); over 128 µg/mL in [4] (Enterococcus faecalis, ATCC29212, E. faecalis ATCC 29212, read-out: MIC (minimal inhibitory concentration)); 128 µg/mL (≈ 262 µM) in [10] (SCV141, read-out: MIC (minimal inhibitory concentration)); over 128 µg/mL in test [11] (Burkholderia cepacia, read-out: MIC (minimal inhibitory concentration)). In test [5], this compound came in with a bacteriostatic concentration of 0.05 to 4 µg/mL. The “growth inhibited by a factor” value in [6] is at most 10. The “effect on kinetics of growth” value is recorded as “almost completely inhibited” in test [8] and “inhibited the growth” in [9]. Also, the “MBC (minimal bacteriostatic or fungistatic concentration)” value in test [11] was “not observed”.
